Test results: patent publication US12233161B1, “Lipids and lipid nanoparticle formulations” (LONGUIDE BIOPHARMA CORPORATION, priority 2024, dated 2025)
Values belong to the molecule of their own block, whether it stands above or below them.

Experiments:
mice = experiment: In vivo delivery of FLuc-mRNA lipid nanoparticles in mice, in vivo imaging (IVIS)
Outline: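 Mice (n=3) received about 75 μL FLuc-mRNA LNP per mouse intramuscularly (rectus femoris), intravenously (tail vein), intraperitoneally or subcutaneously (back). After injection, D-luciferin (200 μL, 15 mg/mL) was given i.p. 10-15 min before IVIS imaging.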

[1] = Particle size and PDI of nucleic acid lipid nanoparticle preparations by dynamic light scattering; format: physicochemical
Outline: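 Size read by DLS after diluting the LNP preparation (approx. 0.04 mg/mL mRNA) in ultrapure water with gentle pipette mixing. The same sample, recovered and diluted further with water, was then used for zeta potential measurement.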

[2] = Potential characterization of nucleic acid lipid nanoparticle preparations; format: physicochemical
Description: 20 μL of the nucleic acid lipid nanoparticle solution (containing about 0.04 mg/mL mRNA) was taken and added with 780 μL of ultrapure water, used a pipette tip to gently blow and mix, and the potential of the nanopreparation was detected by Malvern particle sizer (model ZEN3700).
27.5 μL nucleic acid lipid nanoparticle solution (containing about 0.04 mg/mL mRNA) was taken and added with 200 μL ultrapure water. A pipette tip was used to gently blow the sample and mix well. The particle size of the nanopreparation was detected by Malvern Dynamic Light Scattering Instrument (Malvern Instruments Ltd., ZEN3700, UK). After the detection, the sample was recovered to an EP tube, and 600 μL of ultrapure water was added, gently blown with a pipette tip, and the potential of the nanopreparation was measured by a Malvern particle size meter.

[3] = DSPE-PEG5000:DSPC:Chol:compound 1.40:11.15:38.95:48.50, N/P 30
[4] = DMG-PEG2000:DSPC:Chol:Lipid 0.50:4.00:47.00:48.50, N/P 36, IV, liver
[5] = DMG-PEG2000:DSPC:Chol:Lipid 0.50:4.00:47.00:48.50, N/P 36, IV, lung
[6] = DMG-PEG2000:DSPC:Chol:Lipid 0.50:4.00:47.00:48.50, N/P 36, IV, spleen
[7] = DMG-PEG2000:DSPC:Chol:Lipid 1.00:4.00:25.00:70.00, N/P 36, IV, liver
[8] = DMG-PEG2000:DSPC:Chol:Lipid 1.00:4.00:25.00:70.00, N/P 36, IV, lung
[9] = DMG-PEG2000:DSPC:Chol:Lipid 1.00:4.00:25.00:70.00, N/P 36, IV, spleen
[10] = DMG-PEG2000:DSPC:Chol:Lipid 1.00:16.00:48.00:35.00, N/P 18, IV, liver
[11] = DMG-PEG2000:DSPC:Chol:Lipid 1.00:16.00:48.00:35.00, N/P 18, IV, lung
[12] = DMG-PEG2000:DSPC:Chol:Lipid 1.00:16.00:48.00:35.00, N/P 18, IV, spleen
[13] = DMG-PEG2000:DSPC:Chol:Lipid 0.50:4.00:47.00:48.50, N/P 36, mRNA LNP
[14] = DMG-PEG2000:DSPC:Chol:Lipid 1.00:4.00:25.00:70.00, N/P 36, mRNA LNP
[15] = DMG-PEG2000:DSPC:Chol:Lipid 1.00:16.00:48.00:35.00, N/P 18, mRNA LNP
[16] = DMG-PEG2000:DSPC:Chol:Lipid 1.40:11.15:38.95:48.50, N/P 18, mRNA LNP
[17] = DMG-PEG2000:DSPC:Chol:compound 1.00:10.00:33.00:56.00, N/P 48
[18] = DMG-PEG2000:DSPC:Chol:Lipid 1.00:8.00:51.00:40.00, N/P 6.7, IV, liver
[19] = DMG-PEG2000:DSPC:Chol:Lipid 1.00:8.00:51.00:40.00, N/P 6.7, IV, lung
[20] = DMG-PEG2000:DSPC:Chol:Lipid 1.00:8.00:51.00:40.00, N/P 6.7, IV, spleen
[21] = DMG-PEG2000:DSPC:Chol:Lipid 1.50:8.00:30.50:60.00, N/P 8.3, IV, liver
[22] = DMG-PEG2000:DSPC:Chol:Lipid 1.50:8.00:30.50:60.00, N/P 8.3, IV, lung
[23] = DMG-PEG2000:DSPC:Chol:Lipid 1.50:8.00:30.50:60.00, N/P 8.3, IV, spleen
[24] = DMG-PEG2000:DSPC:Chol:Lipid 1.00:8.00:51.00:40.00, N/P 6.7, mRNA LNP
[25] = DMG-PEG2000:DSPC:Chol:Lipid 1.50:8.00:30.50:60.00, N/P 8.3, mRNA LNP
[26] = DMG-PEG2000:DSPC:Chol:Lipid 1.63:12.99:45.38:40.00, N/P 25, mRNA LNP
[27] = DMG-PEG2000:DSPC:Chol:Lipid 0.95:7.58:26.47:65.00, N/P 18, mRNA LNP
[28] = DMG-PEG2000:DSPC:Chol:compound 1.40:11.15:38.95:48.50, N/P 20
[29] = DMG-PEG2000:DSPC:Chol:compound 1.40:11.15:38.95:48.50, N/P 30

SMILES: CCCCCCCCCCCCN(C)C(=O)C(O)CN(C)CCN(C)CCN(C)CC(O)C(=O)N(C)CCCCCCCCCCCC (centres unmarked) [Compound L0341]
IVIS (mice; IM, DSPE-PEG5000:DSPC:Chol:compound 1.40:11.15:38.95:48.50, N/P 30, Fluc-mRNA): 9.99E+04
IVIS (mice; IV, organ not given, DSPE-PEG5000:DSPC:Chol:compound 1.40:11.15:38.95:48.50, N/P 30, Fluc-mRNA): 4.10E+05
PDI [1, 3]: 0.18
Particle size (nm) [1, 3]: 212.5 nm
Zeta potential (mV) [2, 3]: 7.85 mV

SMILES: CCCCCCCCCCOC(=O)C(O)CN(C)CCN(C)CCN(C)CC(O)C(=O)OCCCCCCCCCC (centres unmarked) [Compound L0275]
IVIS (mice; DMG-PEG2000:DSPC:Chol:Lipid 0.95:7.58:26.47:65.00, N/P 18, IM, whole body scan): 1.47 × 10^6
IVIS (mice; DMG-PEG2000:DSPC:Chol:Lipid 1.40:11.15:38.95:48.50, N/P 18, IV, whole body scan): 4.52 × 10^5
PDI [1, 27]: 0.13 ± 0.01
Particle size [1, 27]: 121.27 ± 0.93 nm
PDI [1, 16]: 0.17 ± 0.01
Particle size [1, 16]: 85.45 ± 0.70 nm

SMILES: CCCCCCOCOCCCCCCOC(=O)C(O)CN(CCOCCN(CC(O)C(=O)OCCCCCCOCOCCCCCC)CC(O)C(=O)OCCCCCCOCOCCCCCC)CC(O)C(=O)OCCCCCCOCOCCCCCC (centres unmarked) [Compound L0330]
IVIS (mice; IM, DMG-PEG2000:DSPC:Chol:compound 1.40:11.15:38.95:48.50, N/P 20, Fluc-mRNA): 1.35E+06
IVIS (mice; IV, body, DMG-PEG2000:DSPC:Chol:compound 1.40:11.15:38.95:48.50, N/P 20, Fluc-mRNA): 2.05E+06
% of organ targeting (mice; IV, liver, DMG-PEG2000:DSPC:Chol:compound 1.40:11.15:38.95:48.50, N/P 20): 29.70%
IVIS (mice; IV, liver, DMG-PEG2000:DSPC:Chol:compound 1.40:11.15:38.95:48.50, N/P 20, Fluc-mRNA): 2.90E+05
% of organ targeting (mice; IV, lung, DMG-PEG2000:DSPC:Chol:compound 1.40:11.15:38.95:48.50, N/P 20): 4.48%
IVIS (mice; IV, lung, DMG-PEG2000:DSPC:Chol:compound 1.40:11.15:38.95:48.50, N/P 20, Fluc-mRNA): 4.37E+04
% of organ targeting (mice; IV, spleen, DMG-PEG2000:DSPC:Chol:compound 1.40:11.15:38.95:48.50, N/P 20): 65.82%
IVIS (mice; IV, spleen, DMG-PEG2000:DSPC:Chol:compound 1.40:11.15:38.95:48.50, N/P 20, Fluc-mRNA): 6.43E+05
PDI [1, 28]: 0.10
Particle size (nm) [1, 28]: 145.77 nm

Further lines, with some results ahead:

PDI [1, 13]: 0.11 ± 0.01
Particle size [1, 13]: 113.50 ± 0.20 nm
PDI [1, 14]: 0.18 ± 0.01
Particle size [1, 14]: 167.67 ± 2.20 nm
PDI [1, 15]: 0.15 ± 0.02
Particle size [1, 15]: 119.23 ± 0.68 nm
PDI [1, 16]: 0.13 ± 0.02
Particle size [1, 16]: 91.45 ± 0.74 nm
PDI [1, 17]: 0.13
Particle size (nm) [1, 17]: 125.97 nm
Zeta potential (mV) [2, 17]: 13.60 mV
SMILES: CCCCCCCCCCCCNC(=O)C(O)CN(CCCN(CCCN(CC(O)C(=O)NCCCCCCCCCCCC)CC(O)C(=O)NCCCCCCCCCCCC)CC(O)CO)CC(O)C(=O)NCCCCCCCCCCCC (centres unmarked) [Compound L0273]
IVIS (mice; DMG-PEG2000:DSPC:Chol:Lipid 0.50:4.00:47.00:48.50, N/P 36, IV, body): 5.29 × 10^7
% of organ targeting (mice; [4]): 1.50%
IVIS (mice; [4]): 2.55 × 10^6
% of organ targeting (mice; [5]): 95.51%
IVIS (mice; [5]): 1.62 × 10^8
% of organ targeting (mice; [6]): 2.99%
IVIS (mice; [6]): 5.07 × 10^6
IVIS (mice; DMG-PEG2000:DSPC:Chol:Lipid 1.00:4.00:25.00:70.00, N/P 36, IV, body): 1.65 × 10^8
% of organ targeting (mice; [7]): 1.40%
IVIS (mice; [7]): 6.91 × 10^6
% of organ targeting (mice; [8]): 97.42%
IVIS (mice; [8]): 4.82 × 10^8
% of organ targeting (mice; [9]): 1.19%
IVIS (mice; [9]): 5.88 × 10^6
IVIS (mice; DMG-PEG2000:DSPC:Chol:Lipid 1.00:16.00:48.00:35.00, N/P 18, IV, body): 3.19 × 10^7
% of organ targeting (mice; [10]): 14.38%
IVIS (mice; [10]): 3.44 × 10^6
% of organ targeting (mice; [11]): 9.95%
IVIS (mice; [11]): 2.38 × 10^6
% of organ targeting (mice; [12]): 75.67%
IVIS (mice; [12]): 1.81 × 10^7
IVIS (mice; DMG-PEG2000:DSPC:Chol:Lipid 1.40:11.15:38.95:48.50, N/P 18, IM, whole body scan): 2.54 × 10^6
IVIS (mice; IV, body, DMG-PEG2000:DSPC:Chol:compound 1.00:10.00:33.00:56.00, N/P 48, Fluc-mRNA): 4.36E+08
% of organ targeting (mice; IV, liver, DMG-PEG2000:DSPC:Chol:compound 1.00:10.00:33.00:56.00, N/P 48): 0.73%
IVIS (mice; IV, liver, DMG-PEG2000:DSPC:Chol:compound 1.00:10.00:33.00:56.00, N/P 48, Fluc-mRNA): 5.72E+06
% of organ targeting (mice; IV, lung, DMG-PEG2000:DSPC:Chol:compound 1.00:10.00:33.00:56.00, N/P 48): 98.17%
IVIS (mice; IV, lung, DMG-PEG2000:DSPC:Chol:compound 1.00:10.00:33.00:56.00, N/P 48, Fluc-mRNA): 7.69E+08
% of organ targeting (mice; IV, spleen, DMG-PEG2000:DSPC:Chol:compound 1.00:10.00:33.00:56.00, N/P 48): 1.09%
IVIS (mice; IV, spleen, DMG-PEG2000:DSPC:Chol:compound 1.00:10.00:33.00:56.00, N/P 48, Fluc-mRNA): 8.58E+06
in vivo delivery efficiency as compared to the benchmark compound SM102 (mice; certain formulations, Table 2): superior in vivo delivery efficiency
tissue-targeting specificity (lung vs spleen depending on molar percentage of compound) (mice; certain formulations, Table 2): strong tissue-targeting specificity

PDI [1, 24]: 0.10 ± 0.01
Particle size [1, 24]: 80.47 ± 1.22 nm
PDI [1, 25]: 0.17 ± 0.02
Particle size [1, 25]: 108.70 ± 0.82 nm
PDI [1, 26]: 0.17 ± 0.01
Particle size [1, 26]: 85.98 ± 1.18 nm
SMILES: CCCCCCCCCCNC(=O)C(O)CN(CCN(C)CCN(CC(O)C(=O)NCCCCCCCCCC)CC(O)C(=O)NCCCCCCCCCC)CC(O)C(=O)NCCCCCCCCCC (centres unmarked) [Compound L0266]
IVIS (mice; DMG-PEG2000:DSPC:Chol:Lipid 1.00:8.00:51.00:40.00, N/P 6.7, IV, body): 3.13 × 10^7
% of organ targeting (mice; [18]): 28.98%
IVIS (mice; [18]): 3.13 × 10^6
% of organ targeting (mice; [19]): 24.44%
IVIS (mice; [19]): 2.64 × 10^6
% of organ targeting (mice; [20]): 46.57%
IVIS (mice; [20]): 5.03 × 10^6
IVIS (mice; DMG-PEG2000:DSPC:Chol:Lipid 1.50:8.00:30.50:60.00, N/P 8.3, IV, body): 2.53 × 10^7
% of organ targeting (mice; [21]): 3.53%
IVIS (mice; [21]): 1.72 × 10^6
% of organ targeting (mice; [22]): 89.03%
IVIS (mice; [22]): 4.34 × 10^7
% of organ targeting (mice; [23]): 7.45%
IVIS (mice; [23]): 3.63 × 10^6
IVIS (mice; DMG-PEG2000:DSPC:Chol:Lipid 1.63:12.99:45.38:40.00, N/P 25, IM, whole body scan): 2.20 × 10^6
tissue-targeting specificity (lung vs spleen depending on molar percentage of compound) (mice; certain formulations, Table 2): strong tissue-targeting specificity

PDI [1, 29]: 0.18
Particle size (nm) [1, 29]: 150.70 nm
SMILES: CCCCCCCCCCCCNCC(O)CN(CCN(CCN(CC(O)CNCCCCCCCCCCCC)CC(O)C(=O)NCCCCCCCCCCCC)CC(O)C(=O)NCCCCCCCCCCCC)CC(O)C(=O)NCCCCCCCCCCCC (centres unmarked) [Compound L0332]
IVIS (mice; IM, DMG-PEG2000:DSPC:Chol:compound 1.40:11.15:38.95:48.50, N/P 30, Fluc-mRNA): 7.75E+05
IVIS (mice; IV, organ not given, DMG-PEG2000:DSPC:Chol:compound 1.40:11.15:38.95:48.50, N/P 30, Fluc-mRNA): 3.67E+05
